Source: patent US9260425B2 (Genetech, Inc., priority 2011, dated 2016)

Assays:
BaF3 parental cells = experiment: In vitro cell proliferation potency assay, BaF3 parental line with IL-3 (Cell Titer Glo); format: cell-based, murine; conditions: Mus musculus, 2 ng/mL mIL-3, incubated overnight, read-out: Prolif. BaF3 IL3 (IC50)
Method: (§1) In Vitro Cell Proliferation Potency Assays
(§2) BaF3 parental line was obtained from the DSMZ repository. BaF3 lines transfected with PIM-1 or PIM-2 were generated. Mouse IL-3 was purchased from R&D Systems. G418 was purchased from Clontech. Media for BaF3 parental line contained RPMI, 10% FBS, 2 mM L-Glutamine, 2 ng/mL mIL-3. Media for BaF3 PIM1 & 2 lines contained RPMI, 10% FBS, 2 mM L-Glutamine, […]. Media for MM1.S (multiple myeloma cells) line contained RPMI, 10% FBS, 2 mM L-Glutamine.
(§3) BaF3, a murine interleukin-3 dependent pro-B cell line, parental cells, BaF3 PIM1 cells, BaF3 PIM-2 cells, and MM1.S (multiple myeloma) cells were seeded at 2 k/well, 5 k/well, 5 k/well, and 10 k/well respectively, in a 384-well plate, at 45 μL/well. Test compound was added at 5 μL/well. BaF3 cells (parental and transfected) were incubated overnight, while MM1.S cells were incubated for 72 hours at 37° C., 5% CO2. Cell Titer Glo Reagent (Promega) was added at 50 μL/well, the plates were incubated for 30 minutes, and their luminescence read on an HT Analyst. IC50/EC50 values for the test compound were calculated.

Pim-1 = Pim-1 (Homo sapiens (Human), UniProt P11309); experiment: Pim kinase binding activity assay (Example 901), PIM-1 enzyme, Caliper microfluidic peptide phosphorylation; format: biochemical; conditions: 20 pM PIM-1, 10 μM ATP, 1 μM FAM-peptide, 90 minutes at room temperature
Chain of Pim-1 (P11309 whole entry): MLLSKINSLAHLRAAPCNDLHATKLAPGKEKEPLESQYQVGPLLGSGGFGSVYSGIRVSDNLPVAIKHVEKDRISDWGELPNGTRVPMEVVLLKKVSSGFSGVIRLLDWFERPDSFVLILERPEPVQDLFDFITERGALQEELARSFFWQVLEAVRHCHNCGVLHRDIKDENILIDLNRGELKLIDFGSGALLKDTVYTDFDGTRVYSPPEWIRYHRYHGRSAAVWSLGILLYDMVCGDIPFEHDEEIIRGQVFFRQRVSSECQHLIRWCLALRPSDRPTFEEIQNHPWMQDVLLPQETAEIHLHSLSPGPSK
How it was run: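 The readout was microfluidic mobility-shift separation of a FAM-tagged Pim-specific peptide, excited at 488 nm and read at 530 nm, with Ki calculated from percent conversion. Reactions held 20 pM PIM-1, 1 μM peptide and 10 μM ATP in pH 7.2 HEPES/MgCl2/DTT buffer, ran 90 min at room temperature and were stopped with EDTA.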

BaF3 PIM1 cells = experiment: In vitro cell proliferation potency assay, BaF3 line transfected with PIM-1 (Cell Titer Glo); format: cell-based, murine; conditions: Mus musculus, incubated overnight, read-out: Prolif. BaF3 PIM-1 (IC50)
Method: as §1
as §2, with “BaF3 lines transfected with PIM-1 or PIM-2 were generated.” left out
as §3

[1] = system: MM1.S (multiple myeloma) cells; experiment: In vitro cell proliferation potency assay, MM1.S cells (Cell Titer Glo); format: cell-based; conditions: Homo sapiens, 72 hours, read-out: Prolif. MM1S ATP (EC50)
Method: as §1, §2, §3

SMILES	IC50 (BaF3 parental cells)	Ki (Pim-1)	IC50 (BaF3 PIM1 cells)	EC50 [1]
OCCN1CCCN(c2cccc(-c3n[nH]c4cnc(-c5cccnc5)cc34)n2)CC1 [Example 357, 2-(4-(6-(5-(pyridin-3-yl)-1H-pyrazolo[3,4-c]pyridin-3-yl)pyridin-2-yl)-1,4-diazepan-1-yl)ethanol]	4900 nM	0.26 nM	709 nM	244 nM
C=Cc1ccc(-c2n[nH]c3cnc(-c4cccnc4)cc23)nc1N1CCC[C@H](N)C1 [Example 307, (S)-1-(6-(5-(pyridin-3-yl)-1H-pyrazolo[3,4-c]pyridin-3-yl)-3-vinylpyridin-2-yl)piperidin-3-amine]	1400 nM	0.014 nM	67.1 nM	141 nM
